ChEMBL document CHEMBL1201862, “PubChem BioAssay data set” (2004)
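Exposure lasted 48 hours, with cells grown in 96-well plates and compounds tested at five concentrations. GI50 is the concentration that inhibits growth by half.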 Activity calls are given as the source filed them. Rule as the data show it: active = GI50 up to about 1.1 µM and inactive = higher.

Key:
Assay in all cases: NCI anticancer screen, dose series, 48 h
SNB-75 = test system: SNB-75
OVCAR-5 = test system: OVCAR-5
OVCAR-3 = test system: OVCAR-3
DLD-1 = test system: DLD-1
XF498 = test system: XF498
SNB-19 = test system: SNB-19
SNB-78 = test system: SNB-78
UACC-62 = test system: UACC-62
DMS-273 = test system: DMS-273
CCRF-CEM = test system: CCRF-CEM
HCC 2998 = test system: HCC 2998
M14 = test system: M14
HOP-92 = test system: HOP-92
SW-620 = test system: SW-620
UACC-257 = test system: UACC-257
SK-MEL-5 = test system: SK-MEL-5
SF-539 = test system: SF-539
HOP-18 = test system: HOP-18
A498 = test system: A498
COLO 205 = test system: COLO 205
HCT-15 = test system: HCT-15
IGROV-1 = test system: IGROV-1
A549 = test system: A549
NCI-H460 = test system: NCI-H460
HT-29 = test system: HT-29
M19-MEL = test system: M19-MEL
UO-31 = test system: UO-31
KM-20L2 = test system: KM-20L2
LOX IMVI = test system: LOX IMVI
EKVX = test system: EKVX
SK-MEL-28 = test system: SK-MEL-28
NCI-H23 = test system: NCI-H23
HL-60 = test system: HL-60
LXFL 529 = test system: LXFL 529
CAKI-1 = test system: CAKI-1
SF-295 = test system: SF-295
SK-MEL-2 = test system: SK-MEL-2
NCI-H226 = test system: NCI-H226
RXF 393 = test system: RXF 393
Malme-3M = test system: Malme-3M
KM12 = test system: KM12
SN12C = test system: SN12C
786-0 = test system: 786-0
U-251 = test system: U-251
K562 = test system: K562
HCT-116 = test system: HCT-116
SF-268 = test system: SF-268
RPMI-8226 = test system: RPMI-8226
DMS-114 = test system: DMS-114
HOP-62 = test system: HOP-62
MOLT-4 = test system: MOLT-4
NCI-H522 = test system: NCI-H522
ACHN = test system: ACHN
TK-10 = test system: TK-10
SK-OV-3 = test system: SK-OV-3
OVCAR-4 = test system: OVCAR-4
OVCAR-8 = test system: OVCAR-8

O=C(Nc1ccccc1-c1nn(C(=S)Nc2ccccc2)c(=S)n(C(=S)Nc2ccccc2)c1=O)C(F)(F)F
GI50 (SNB-75): 31.1 µM (inactive)
GI50 (OVCAR-5): 49.9 µM (inactive)
GI50 (OVCAR-3): 21.6 µM (inactive)
GI50 (DLD-1): 24.8 µM (inactive)
GI50 (XF498): 23.1 µM (inactive)
GI50 (SNB-19): 35.4 µM (inactive)
GI50 (SNB-78): 35.4 µM (inactive)
GI50 (UACC-62): 17.3 µM (inactive)
GI50 (DMS-273): 27.4 µM (inactive)
GI50 (CCRF-CEM): 13.3 µM (inactive)
GI50 (HCC 2998): 25.3 µM (inactive)
GI50 (M14): 20.4 µM (inactive)
GI50 (HOP-92): 12.8 µM (inactive)
GI50 (SW-620): 23.9 µM (inactive)
GI50 (UACC-257): 14.2 µM (inactive)
GI50 (SK-MEL-5): 11.7 µM (inactive)
GI50 (SF-539): 36.1 µM (inactive)
GI50 (HOP-18): 30.1 µM (inactive)
GI50 (A498): 22.1 µM (inactive)
GI50 (COLO 205): 17.5 µM (inactive)
GI50 (HCT-15): 20.1 µM
GI50 (IGROV-1): 21.5 µM (inactive)
GI50 (A549): 24.4 µM (inactive)
GI50 (NCI-H460): 21.3 µM (inactive)
GI50 (HT-29): 27.7 µM (inactive)
GI50 (M19-MEL): 28.2 µM (inactive)
GI50 (UO-31): 11.9 µM (inactive)
GI50 (KM-20L2): 36.2 µM (inactive)
GI50 (LOX IMVI): 19.8 µM (inactive)
GI50 (EKVX): 27.6 µM (inactive)
GI50 (SK-MEL-28): 27.6 µM (inactive)
GI50 (NCI-H23): 15.5 µM (inactive)
GI50 (HL-60): 20.9 µM (inactive)
GI50 (LXFL 529): 17.1 µM (inactive)
GI50 (CAKI-1): 31.4 µM (inactive)
GI50 (SF-295): 31.3 µM (inactive)
GI50 (SK-MEL-2): 22.2 µM (inactive)
GI50 (NCI-H226): 17.2 µM (inactive)
GI50 (RXF 393): 34 µM (inactive)
GI50 (Malme-3M): 30.5 µM (inactive)
GI50 (KM12): 17.3 µM (inactive)
GI50 (SN12C): 26.4 µM (inactive)
GI50 (786-0): 32.1 µM (inactive)
GI50 (U-251): 25.6 µM (inactive)
GI50 (K562): 18.8 µM (inactive)
GI50 (HCT-116): 16.6 µM (inactive)
GI50 (SF-268): 26.5 µM (inactive)
GI50 (RPMI-8226): 11.1 µM (inactive)
GI50 (DMS-114): 9.38 µM (inactive)
GI50 (HOP-62): 29.3 µM (inactive)
GI50 (MOLT-4): 7.85 µM (inactive)
GI50 (NCI-H522): 13.6 µM (inactive)
GI50 (ACHN): 24.4 µM (inactive)
GI50 (TK-10): 35.3 µM (inactive)
GI50 (SK-OV-3): > 87.3 µM (inactive)
GI50 (OVCAR-4): 17.1 µM (inactive)
GI50 (OVCAR-8): 23.9 µM (inactive)

CC(=O)NC1=C(Nc2ccc(C)cc2)C(=O)c2ccccc2C1=O
GI50 (SNB-75): 11.6 µM (inactive)
GI50 (OVCAR-5): 13.3 µM (inactive)
GI50 (OVCAR-3): 16.6 µM (inactive)
GI50 (DLD-1): 19.7 µM (inactive)
GI50 (XF498): 24.9 µM (inactive)
GI50 (SNB-19): 29.3 µM (inactive)
GI50 (SNB-78): 44.9 µM (inactive)
GI50 (UACC-62): 10.9 µM (inactive)
GI50 (DMS-273): 16.5 µM (inactive)
GI50 (CCRF-CEM): 17.1 µM (inactive)
GI50 (HCC 2998): 31.7 µM (inactive)
GI50 (M14): 13.5 µM (inactive)
GI50 (SW-620): 13.5 µM (inactive)
GI50 (UACC-257): 18 µM (inactive)
GI50 (SK-MEL-5): 10.2 µM (inactive)
GI50 (SF-539): 16.2 µM (inactive)
GI50 (HOP-18): 12.2 µM (inactive)
GI50 (A498): 50.2 µM (inactive)
GI50 (COLO 205): 18.7 µM (inactive)
GI50 (HCT-15): 14.5 µM
GI50 (IGROV-1): 17.7 µM (inactive)
GI50 (A549): 14.3 µM (inactive)
GI50 (NCI-H460): 12.1 µM (inactive)
GI50 (HT-29): 15.2 µM (inactive)
GI50 (M19-MEL): 8.43 µM (inactive)
GI50 (UO-31): 25 µM (inactive)
GI50 (KM-20L2): 24.1 µM (inactive)
GI50 (LOX IMVI): 9.53 µM (inactive)
GI50 (EKVX): > 75 µM (inactive)
GI50 (SK-MEL-28): 17.6 µM (inactive)
GI50 (NCI-H23): 8.02 µM (inactive)
GI50 (HL-60): 10.2 µM (inactive)
GI50 (LXFL 529): 23.6 µM (inactive)
GI50 (CAKI-1): 43.7 µM (inactive)
GI50 (SF-295): 18.2 µM (inactive)
GI50 (SK-MEL-2): 21.6 µM (inactive)
GI50 (NCI-H226): 14.1 µM (inactive)
GI50 (RXF 393): 23.5 µM (inactive)
GI50 (Malme-3M): 11.5 µM (inactive)
GI50 (KM12): 24.7 µM (inactive)
GI50 (SN12C): 15.9 µM (inactive)
GI50 (786-0): 15.4 µM (inactive)
GI50 (U-251): 29 µM (inactive)
GI50 (K562): 18.2 µM (inactive)
GI50 (HCT-116): 19.9 µM (inactive)
GI50 (SF-268): 26.9 µM (inactive)
GI50 (RPMI-8226): 11.7 µM (inactive)
GI50 (DMS-114): 14.5 µM (inactive)
GI50 (HOP-62): 17.1 µM (inactive)
GI50 (MOLT-4): 16.7 µM (inactive)
GI50 (ACHN): 17.9 µM (inactive)
GI50 (TK-10): > 75 µM (inactive)
GI50 (SK-OV-3): > 75 µM (inactive)
GI50 (OVCAR-4): 17.7 µM (inactive)
GI50 (OVCAR-8): 25 µM (inactive)
